Data as given in PubChem BioAssay (NCI).
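Cells were grown in 96-well plates and exposed to each compound for 48 hours at five concentrations; endpoints were interpolated linearly between bracketing concentrations, or set to the highest concentration if not reached. At the GI50, growth is halved. TGI is the concentration that stops growth completely.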

Legend:
Assay in all cases: inhibition of tumour cell growth, NCI panel, 48 h
CCRF-CEM leukemia = tested on: CCRF-CEM leukemia
OVCAR-3 ovarian = tested on: OVCAR-3 ovarian
A549 NSCLC = tested on: A549 NSCLC
OVCAR-5 ovarian = tested on: OVCAR-5 ovarian
UACC-62 melanoma = tested on: UACC-62 melanoma
MOLT-4 leukemia = tested on: MOLT-4 leukemia
MALME-3M melanoma = tested on: MALME-3M melanoma
SF-539 CNS = tested on: SF-539 CNS
SN12C renal = tested on: SN12C renal
HCC-2998 colon = tested on: HCC-2998 colon
KM12 colon = tested on: KM12 colon
BT-549 breast = tested on: BT-549 breast
OVCAR-4 ovarian = tested on: OVCAR-4 ovarian
HCT-116 colon = tested on: HCT-116 colon
SK-MEL-2 melanoma = tested on: SK-MEL-2 melanoma
DU-145 prostate = tested on: DU-145 prostate
NCI-H226 lung = tested on: NCI-H226 lung
MDA-MB-435 = tested on: MDA-MB-435
EKVX NSCLC = tested on: EKVX NSCLC
HT29 colon = tested on: HT29 colon
HS 578T breast = tested on: HS 578T breast
TK-10 renal = tested on: TK-10 renal
A498 renal = tested on: A498 renal
LOX IMVI melanoma = tested on: LOX IMVI melanoma
SW-620 colon = tested on: SW-620 colon
SK-MEL-28 melanoma = tested on: SK-MEL-28 melanoma
ACHN renal = tested on: ACHN renal
IGROV1 ovarian = tested on: IGROV1 ovarian
NCI-H460 lung = tested on: NCI-H460 lung
SF-268 CNS = tested on: SF-268 CNS
HL-60(TB) leukemia = tested on: HL-60(TB) leukemia
OVCAR-8 ovarian = tested on: OVCAR-8 ovarian
SK-OV-3 ovarian = tested on: SK-OV-3 ovarian
M14 melanoma = tested on: M14 melanoma
SK-MEL-5 melanoma = tested on: SK-MEL-5 melanoma
SNB-75 CNS = tested on: SNB-75 CNS
PC-3 prostate = tested on: PC-3 prostate
SR leukemia = tested on: SR leukemia
U251 CNS = tested on: U251 CNS
MCF7 breast = tested on: MCF7 breast
RPMI-8226 leukemia = tested on: RPMI-8226 leukemia
NCI-H23 lung = tested on: NCI-H23 lung
RXF 393 renal = tested on: RXF 393 renal
T-47D breast = tested on: T-47D breast
UACC-257 melanoma = tested on: UACC-257 melanoma
HOP-92 NSCLC = tested on: HOP-92 NSCLC
UO-31 renal = tested on: UO-31 renal
HOP-62 NSCLC = tested on: HOP-62 NSCLC
COLO 205 colon = tested on: COLO 205 colon
HCT-15 colon = tested on: HCT-15 colon
SNB-19 CNS = tested on: SNB-19 CNS
786-0 renal = tested on: 786-0 renal
CAKI-1 renal = tested on: CAKI-1 renal
MDA-MB-231 breast = tested on: MDA-MB-231 breast
NCI-H522 lung = tested on: NCI-H522 lung
SF-295 CNS = tested on: SF-295 CNS

## COc1ccc(/C=C/C(=O)Nc2cc(/C=C\c3cc(OC)c(OC)c(OC)c3)cc(OC)c2OC)cc1OC
CCRF-CEM leukemia
  GI50: 2480 nM
  TGI: > 100 µM
OVCAR-3 ovarian
  GI50: 5530 nM
  TGI: > 100000 nM
A549 NSCLC
  GI50: 3690 nM
  TGI: > 100 µM
OVCAR-5 ovarian
  GI50: 6.49 µM
  TGI: > 100 µM
UACC-62 melanoma
  GI50: 2210 nM
  TGI: > 100 µM
MOLT-4 leukemia
  GI50: 3.35 µM
  TGI: > 100 µM
MALME-3M melanoma
  GI50: 2800 nM
  TGI: > 100 µM
SF-539 CNS
  GI50: 3700 nM
  TGI: > 100000 nM
SN12C renal
  GI50: 3.96 µM
  TGI: > 100 µM
HCC-2998 colon
  GI50: 6.95 µM
  TGI: > 100 µM
KM12 colon
  GI50: 4220 nM
  TGI: > 100 µM
BT-549 breast
  GI50: 3360 nM
  TGI: 57.8 µM
OVCAR-4 ovarian
  GI50: 2490 nM
  TGI: > 100000 nM
HCT-116 colon
  GI50: 3710 nM
  TGI: > 100000 nM
SK-MEL-2 melanoma
  GI50: 3050 nM
  TGI: 9.4 µM
DU-145 prostate
  GI50: 26.6 µM
  TGI: > 100000 nM
NCI-H226 lung
  GI50: 3.62 µM
  TGI: > 100 µM
MDA-MB-435
  GI50: 1290 nM
  TGI: 4.52 µM
EKVX NSCLC
  GI50: 3470 nM
  TGI: > 100 µM
HT29 colon
  GI50: 3640 nM
  TGI: > 100000 nM
HS 578T breast
  GI50: 8.92 µM
  TGI: > 100 µM
TK-10 renal
  GI50: 5.13 µM
  TGI: > 100 µM
A498 renal
  GI50: 4.92 µM
  TGI: > 100000 nM
LOX IMVI melanoma
  GI50: 4000 nM
  TGI: > 100000 nM
SW-620 colon
  GI50: 5050 nM
  TGI: > 100000 nM
SK-MEL-28 melanoma
  GI50: 2870 nM
  TGI: > 100 µM
ACHN renal
  GI50: 4.68 µM
  TGI: > 100000 nM
IGROV1 ovarian
  GI50: 7.48 µM
  TGI: > 100 µM
NCI-H460 lung
  GI50: 3370 nM
  TGI: > 100000 nM
SF-268 CNS
  GI50: 9.1 µM
  TGI: > 100 µM
HL-60(TB) leukemia
  GI50: 2300 nM
  TGI: 7.66 µM
OVCAR-8 ovarian
  GI50: 3.44 µM
  TGI: > 100 µM
SK-OV-3 ovarian
  GI50: 3020 nM
  TGI: 8.48 µM
M14 melanoma
  GI50: 3010 nM
  TGI: > 100 µM
SK-MEL-5 melanoma
  GI50: 1610 nM
  TGI: 3.65 µM
SNB-75 CNS
  GI50: 1680 nM
  TGI: 7.46 µM
PC-3 prostate
  GI50: 3060 nM
  TGI: > 100 µM
SR leukemia
  GI50: 668 nM
  TGI: > 100 µM
U251 CNS
  GI50: 4220 nM
  TGI: > 100000 nM
MCF7 breast
  GI50: 2440 nM
  TGI: > 100000 nM
RPMI-8226 leukemia
  GI50: 2140 nM
  TGI: > 100 µM
NCI-H23 lung
  GI50: 3.48 µM
  TGI: > 100 µM
RXF 393 renal
  GI50: 2230 nM
  TGI: 6.42 µM
T-47D breast
  GI50: 2210 nM
  TGI: 8.73 µM
UACC-257 melanoma
  GI50: 6.5 µM
  TGI: > 100 µM
HOP-92 NSCLC
  GI50: > 100000 nM
  TGI: > 100 µM
UO-31 renal
  GI50: 2310 nM
  TGI: > 100 µM
HOP-62 NSCLC
  GI50: 3150 nM
  TGI: > 100 µM
COLO 205 colon
  GI50: 2650 nM
  TGI: 6.55 µM
HCT-15 colon
  GI50: 3580 nM
  TGI: > 100000 nM
SNB-19 CNS
  GI50: 4.3 µM
  TGI: > 100 µM
786-0 renal
  GI50: 2980 nM
  TGI: > 100 µM
CAKI-1 renal
  GI50: 2160 nM
  TGI: > 100000 nM
MDA-MB-231 breast
  GI50: 6.65 µM
  TGI: > 100000 nM

## CCNCCNc1cc(-c2ccc(Cl)c(Cl)c2)c(C#N)c2nc3ccccc3n12
NCI-H522 lung
  GI50: 1320 nM
  TGI: 2800 nM
OVCAR-3 ovarian
  GI50: 248 nM
  TGI: 580 nM
A549 NSCLC
  GI50: 1430 nM
  TGI: 3.01 µM
SF-295 CNS
  GI50: 1810 nM
  TGI: 3.24 µM
OVCAR-5 ovarian
  GI50: 1.87 µM
  TGI: 3.55 µM
UACC-62 melanoma
  GI50: 1820 nM
  TGI: 3.56 µM
MALME-3M melanoma
  GI50: 1760 nM
  TGI: 3.41 µM
SF-539 CNS
  GI50: 224 nM
  TGI: 580 nM
HCC-2998 colon
  GI50: 1.69 µM
  TGI: 3.21 µM
KM12 colon
  GI50: 1600 nM
  TGI: 3.15 µM
BT-549 breast
  GI50: 1540 nM
  TGI: 2.9 µM
OVCAR-4 ovarian
  GI50: 1230 nM
  TGI: 2530 nM
HCT-116 colon
  GI50: 278 nM
  TGI: 1080 nM
SK-MEL-2 melanoma
  GI50: 1580 nM
  TGI: 3.07 µM
DU-145 prostate
  GI50: 1.44 µM
  TGI: 2760 nM
MDA-MB-435
  GI50: 1700 nM
  TGI: 3.14 µM
EKVX NSCLC
  GI50: 1750 nM
  TGI: 3.33 µM
HT29 colon
  GI50: 369 nM
  TGI: 1420 nM
HS 578T breast
  GI50: 1.9 µM
  TGI: 4.43 µM
TK-10 renal
  GI50: 1.69 µM
  TGI: 3.11 µM
A498 renal
  GI50: 1.38 µM
  TGI: 2880 nM
LOX IMVI melanoma
  GI50: 1210 nM
  TGI: 2530 nM
SW-620 colon
  GI50: 578 nM
  TGI: 2070 nM
SK-MEL-28 melanoma
  GI50: 1900 nM
  TGI: 3.54 µM
ACHN renal
  GI50: 1.39 µM
  TGI: 2870 nM
NCI-H460 lung
  GI50: 485 nM
  TGI: 1910 nM
SF-268 CNS
  GI50: 1.71 µM
  TGI: 3.33 µM
SK-OV-3 ovarian
  GI50: 1790 nM
  TGI: 3.23 µM
M14 melanoma
  GI50: 1720 nM
  TGI: 3.24 µM
SK-MEL-5 melanoma
  GI50: 1710 nM
  TGI: 3.12 µM
SNB-75 CNS
  GI50: 1460 nM
  TGI: 2.96 µM
PC-3 prostate
  GI50: 1660 nM
  TGI: 3.19 µM
SR leukemia
  GI50: 287 nM
  TGI: > 100 µM
U251 CNS
  GI50: 757 nM
  TGI: 2150 nM
MCF7 breast
  GI50: 1010 nM
  TGI: 2460 nM
RXF 393 renal
  GI50: 1500 nM
  TGI: 2.94 µM
T-47D breast
  GI50: 1430 nM
  TGI: 3.2 µM
UACC-257 melanoma
  GI50: 1.89 µM
  TGI: 3.52 µM
HOP-92 NSCLC
  GI50: 1670 nM
  TGI: 3.28 µM
UO-31 renal
  GI50: 1600 nM
  TGI: 3.12 µM
HOP-62 NSCLC
  GI50: 1620 nM
  TGI: 3.18 µM
COLO 205 colon
  GI50: 421 nM
  TGI: 1.63 µM
HCT-15 colon
  GI50: 629 nM
  TGI: 1920 nM
786-0 renal
  GI50: 1660 nM
  TGI: 3.18 µM
CAKI-1 renal
  GI50: 1560 nM
  TGI: 2900 nM
MDA-MB-231 breast
  GI50: 1.21 µM
  TGI: 2710 nM
